How the values were obtained:
[1] = system: PSMA(+) PC3 PIP and PSMA(−) PC3 flu tumor xenografts; test: Biodistribution of 177Lu compounds (Example 5)
PSMA(+) PC3 PIP cells = test: Cell uptake, cell surface binding and internalization in PSMA(+) PC3 PIP cells; format: cell-based, human; details: for Blockade PC3 PIP: ZJ43 10 μM; for total uptake within the PSMA(+) PC3 PIP cells: 1 h to 24 h
PSMA(−) PC3 flu cells = test: Cell uptake in PSMA(−) PC3 flu cells; format: cell-based, human
PSMA+ PC3 PIP tumors = test: Radiopharmaceutical therapy in PC3 PIP flank tumor growth delay model; format: in vivo, NOD/SCID mice; details: for Median survival After 8 weeks post-treatment / Tumors above stated relative tumor growth after week 8 post-treatment (Vt/V0) / Mouse death (number of mice): 111 MBq; for Mouse death (number of mice): up to week 8 post-treatment; for Average final body weight: single i.v. dose 111 MBq (3 mCi)
Procedure: (§1) A pilot treatment study using NOD/SCID mice (n=10 per group) bearing PSMA+ PC3 PIP tumors with a single intravenous dose of 111 MBq (3 mCi) of agents ^177Lu-PSMA-617, ^177Lu-1, ^177Lu-3 and ^177Lu-5 and the control group (with saline treatment) were performed (Table 8). Volume of the all control group mice reached >5-fold of their initial tumor volume within 14 days. Mouse euthanized for treated group within 4 weeks of post-injection was mainly due to sudden body weight loss and not related to tumor growth. […] The difference among treatment groups was statistically significant (P=0.002) by the log-rank test compared to the untreated group. […] After 8-weeks, three mice from each treated group were used for detailed blood analysis and necropsy study. All animals underwent radiotherapy study had normal creatinine (0.3-0.4 mg/dL) and blood urea nitrogen levels. […] Additionally, a significant lowering of platelet for all three treated mice from ^177Lu-PSMA-617 compared control group and other treated groups.
Median survival for the ^177Lu-PSMA-617 was 133 days vs. 234 days for ^177Lu-1.
The remaining treated mice survived tumor-free for 10 months and were evaluated for toxicity.
(§2) Antitumor efficacy studies were performed in PC3 PIP flank tumor growth delay model to evaluate the therapeutic efficacy of a single dose intravenous injection of ^177Lu-L1, ^177Lu-L3, ^177Lu-L5 and ^177Lu-PSMA-617 vs. saline. This was a head-to-head comparison study and same batch of tumor-bearing mice and radioactivity. The study was commenced 14-18 days post-inoculation of the xenografts, when all the mice had tumor volume of about ˜60-85 mm^3 (Table 8). All the living mice were monitored for 8 weeks to monitor the growth delay. Mice body weight and tumor volume were monitored every 3 days throughout the experiment. Endpoint criteria defined by the institute ACUC was weight loss≥15%, a tumor volume>1800 mm^3, active ulceration of the tumor or abnormal behavior indicating pain or unease. After 8-weeks, three mice from each group were submitted for detail necropsy and blood analysis. Mice group treated with ^177Lu-1 and ^177Lu-PSMA-617 were continued to monitor until the endpoint. These definitions were also used for Kaplan-Meier analysis. The probability of reaching 5 times the initial tumor volume was characterized using Kaplan-Meier curves, and comparison was performed using the log-rank test. The formula used for calculation of tumor volume was V=width^2×length/2. Toxicity of the ^177Lu-treatment groups after 8-weeks and in healthy CD-1 (n=3) mice treated with 111 MBq was evaluated by pathologic examination at the Johns Hopkins Pathology Core facility with serum metabolic panel, blood counts, and full necropsy including detailed histopathology of kidneys, salivary glands and lacrimal glands.

[2] = Blood analysis and necropsy after radiotherapy; format: in vivo, NOD/SCID mice
Procedure: as §1
Significant and concerning changes were identified in testes, and lacrimal grands primarily (FIG. 25) for all treated groups. […] Parotid glands, usually adjacent to exorbital lacrimal gland, are conspicuously spared and there were mild changes in the group treated ^177Lu-PSMA-617. […] T lymphoblastic lymphoma is accelerated by irradiation and some carcinogens, and is associated with interactions of endogenous retroviruses/retroelements in NOD/SCID mouse strains. […] The cells are large up to 25 μm, with very large nuclei (for a mouse) usually 2-3 nucleoli, and a high mitotic rate. Testis and lacrimal gland degenerative changes indicate that this animal did receive a treatment similar to other treated mice.
as §2

[3] = 111 MBq (3 mCi), after eight weeks, n=3

Compound | Cell uptake PC3 PIP (PSMA(+) PC3 PIP cells; 1 h) | PC3 PIP cell Int (internalization) (PSMA(+) PC3 PIP cells; 1 h) | Blockade PC3 PIP (PSMA(+) PC3 PIP cells; 1 h) | total uptake within the PSMA(+) PC3 PIP cells (PSMA(+) PC3 PIP cells) | Cell uptake PC3 PIP (PSMA(+) PC3 PIP cells; 2 h) | PC3 PIP, line without name (position of cell internalization) (PSMA(+) PC3 PIP cells; 2 h) | Cell uptake PC3 PIP (PSMA(+) PC3 PIP cells; 4 h) | PC3 PIP cell int (internalization) (PSMA(+) PC3 PIP cells; 4 h) | Cell uptake PC3 PIP (PSMA(+) PC3 PIP cells; 24 h) | PC3 PIP cell int (internalization) (PSMA(+) PC3 PIP cells; 24 h) | Cell uptake PC3 flu (PSMA(−) PC3 flu cells; 1 h) | Cell uptake PC3 flu (PSMA(−) PC3 flu cells; 2 h) | Cell uptake PC3 flu (PSMA(−) PC3 flu cells; 4 h) | Cell uptake PC3 flu (PSMA(−) PC3 flu cells; 24 h) | Median survival After 8 weeks post-treatment (PSMA+ PC3 PIP tumors) | Tumors above stated relative tumor growth after week 8 post-treatment (Vt/V0) (PSMA+ PC3 PIP tumors) | Mouse death (number of mice) (PSMA+ PC3 PIP tumors) | Average final body weight (PSMA+ PC3 PIP tumors) [gram] | other results
O=C([O-])CN1CCN(CC(=O)[O-])CCN(CC(=O)N[C@H](CCCCNC(=O)CCCc2ccc(I)cc2)C(=O)N[C@@H](CCCCNC(=O)CCCCCCC(=O)NCCCC[C@H](NC(=O)N[C@@H](CCC(=O)O)C(=O)O)C(=O)O)C(=O)O)CCN(CC(=O)[O-])CC1.[177Lu+3] [^177Lu-14] |  |  |  |  |  |  |  |  |  |  |  |  |  |  |  |  |  |  | Kidney uptake ([1]; 48 h): 17.47±4.18 % ID/g; blood uptake ([1]; 48 h): 2.48±0.44 % ID/g; initial kidney uptake ([1]; time not given): 49.49±19.55 % ID/g; fold clearance of kidney activity ([1]; to 48 h): ~3 fold
O=C([O-])CN1CCN(CC(=O)[O-])CCN(CC(=O)NCc2ccc(C(=O)NCCCCCC(=O)N(CCCC[C@H](NC(=O)N[C@@H](CCC(=O)O)C(=O)O)C(=O)O)Cc3ccc(Br)cc3)cc2)CCN(CC(=O)[O-])CC1.[177Lu+3] [^177Lu-L3] | 27.0 ± 1.3 % incubated dose per 1 x 10^6 cells | 21.4 ± 1.4 % incubated dose per 1 x 10^6 cells | 0.1 ± 0.0 % incubated dose per 1 x 10^6 cells | ~30 % of the incubated dose | 36.5 ± 0.3 % incubated dose per 1 x 10^6 cells | 23.7 ± 0.2 % incubated dose per 1 x 10^6 cells | 32.6 ± 8.5 % incubated dose per 1 x 10^6 cells | 24.9 ± 3.4 % incubated dose per 1 x 10^6 cells | 45.2 ± 1.2 % incubated dose per 1 x 10^6 cells | 30.0 ± 0.7 % incubated dose per 1 x 10^6 cells | 0.1 ± 0.0 % incubated dose per 1 x 10^6 cells | 0.1 ± 0.0 % incubated dose per 1 x 10^6 cells | 0.1 ± 0.1 % incubated dose per 1 x 10^6 cells | 0.1 ± 0.0 % incubated dose per 1 x 10^6 cells | Not reached | Two tumor > 4 | Mouse death 3 | 25.8 ± 2.6 | 
O=C([O-])CN1CCN(CC(=O)[O-])CCN(CC(=O)NCc2ccc(C(=O)NCCCCNC(=O)CCCCCCC(=O)N(CCCC[C@H](NC(=O)N[C@@H](CCC(=O)O)C(=O)O)C(=O)O)Cc3ccc(Br)cc3)cc2)CCN(CC(=O)[O-])CC1.[177Lu+3] [^177Lu-L5] | 26.6 ± 0.6 % incubated dose per 1 x 10^6 cells | 24.1 ± 0.5 % incubated dose per 1 x 10^6 cells | 0.0 ± 0.0 % incubated dose per 1 x 10^6 cells | ~30 % of the incubated dose | 29.23 ± 0.8 % incubated dose per 1 x 10^6 cells | 25.0 ± 0.9 % incubated dose per 1 x 10^6 cells | 34.4 ± 1.2 % incubated dose per 1 x 10^6 cells | 26.1 ± 1.0 % incubated dose per 1 x 10^6 cells | 49.8 ± 1.4 % incubated dose per 1 x 10^6 cells | 27.9 ± 0.8 % incubated dose per 1 x 10^6 cells | 0.2 ± 0.1 % incubated dose per 1 x 10^6 cells | 0.0 ± 0.0 % incubated dose per 1 x 10^6 cells | 0.1 ± 0.0 % incubated dose per 1 x 10^6 cells | 0.1 ± 0.0 % incubated dose per 1 x 10^6 cells | Not reached | one tumor > 5 | Mouse death 3 | 27.5 ± 1.9 | Albumin [2, 3]: 3 ± 0.4 g/dL; Blood urea nitrogen [2, 3]: 22.7 ± 3.2 mg/dL; Hematocrit [2, 3]: 49.7 ± 2.4%; Hemoglobin [2, 3]: 14.3 ± 1.0 g/dL; Lymphocytes [2, 3]: 0.4 ± 0.1 K/μL; Mean Corpuscular Value(MCV) [2, 3]: 54.1 ± 1.4 fL; Neutrophils [2, 3]: 2.0 ± 1.8 K/μL; Platelets [2, 3]: 1415.3 ± 88.5 K/μL; Red blood cells [2, 3]: 9.2 ± 0.7 M/μL; Total protein [2, 3]: 5.9 ± 0.6 g/dL; White blood cells [2, 3]: 2.9 ± 1.8 K/μL; H&E pathology of testis ([2]; 111 MBq, after 8 weeks): most significant changes in testis; PSMA(+) PC3 PIP tumor uptake ([1]; 3 h post-injection): 56.3±18.3 % ID/g
O=C([O-])CN1CCN(CC(=O)[O-])CCN(CC(=O)O)C(Cc2ccc(NC(=S)NCCCCC(=O)NCCCC[C@H](NC(=O)N[C@@H](CCC(=O)O)C(=O)O)C(=O)O)cc2)CN(CC(=O)[O-])CC1.[177Lu+3] (stereo partly shown) [^177Lu-L7] |  |  |  |  |  |  |  |  |  |  |  |  |  |  |  |  |  |  | PSMA(+) PC3 PIP tumor uptake ([1]; 2 h): 25.4±7.2 % ID/g; PSMA(+) PC3 PIP tumor uptake ([1]; 24 h post-injection): 7.0±1.5 % ID/g; PSMA(+) PC3 PIP tumor uptake ([1]; 48 h): 7.0±3.3 % ID/g; PSMA(+) PC3 PIP tumor uptake ([1]; fourth time point, time not given): 2.3±0.0 % ID/g
O=C([O-])CN1CCN(CC(=O)[O-])CCN(CC(=O)NCC2CCC(C(=O)N(CCCCC(NC(=O)NC(CCC(=O)O)C(=O)O)C(=O)O)Cc3ccc(Br)cc3)CC2)CCN(CC(=O)[O-])CC1.[177Lu+3] (stereo not shown) [^177Lu-L11] |  |  |  |  |  |  |  |  |  |  |  |  |  |  |  |  |  |  | fold lower uptake compared to 177Lu-L1 (PSMA(+) PC3 PIP cells): > 1.5 fold

— patent US11478558B2, “Prostate-specific membrane antigen targeted high-affinity agents for endoradiotherapy of prostate cancer” (The Johns Hopkins University, priority 2017, dated 2022)
